Patent US9834558B2, “Substituted bridged urea analogs as sirtuin modulators” (GLAXOSMITHKLINE LLC, priority 2013, dated 2017)
Where a name gives a salt, the structure may show the parent alone.

Target: T1, SIRT1 (Homo sapiens, UniProt Q96EB6)
T1 sequence (Q96EB6 1-747): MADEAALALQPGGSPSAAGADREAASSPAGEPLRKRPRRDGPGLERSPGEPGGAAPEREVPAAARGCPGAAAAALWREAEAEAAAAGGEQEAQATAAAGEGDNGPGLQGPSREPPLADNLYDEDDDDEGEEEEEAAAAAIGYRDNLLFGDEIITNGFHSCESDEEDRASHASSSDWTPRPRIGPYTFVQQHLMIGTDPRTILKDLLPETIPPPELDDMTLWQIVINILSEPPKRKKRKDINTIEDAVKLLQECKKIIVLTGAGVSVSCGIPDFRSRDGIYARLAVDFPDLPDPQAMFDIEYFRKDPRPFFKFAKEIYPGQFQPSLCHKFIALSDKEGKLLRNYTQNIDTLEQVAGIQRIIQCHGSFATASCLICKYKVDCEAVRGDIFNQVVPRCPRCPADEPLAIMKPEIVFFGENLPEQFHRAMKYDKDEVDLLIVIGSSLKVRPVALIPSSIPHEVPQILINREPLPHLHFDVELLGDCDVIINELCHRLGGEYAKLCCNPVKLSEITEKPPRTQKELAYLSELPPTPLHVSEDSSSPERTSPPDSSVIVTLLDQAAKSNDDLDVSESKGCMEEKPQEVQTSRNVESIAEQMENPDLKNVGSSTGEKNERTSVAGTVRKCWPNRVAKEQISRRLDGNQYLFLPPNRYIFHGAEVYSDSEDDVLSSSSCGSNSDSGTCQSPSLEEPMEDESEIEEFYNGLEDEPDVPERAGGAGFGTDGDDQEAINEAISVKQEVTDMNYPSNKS
Assay: Trp mass spectrometry assay of SIRT1 activation
Assay type: biochemical
Details: for TRP Activity (EC1.5) / Emax: Trp peptide assay; for TRP Activity (EC1.5): EC1.5 = concentration that results in 150% activation of SIRT1; for Emax: maximum activity relative to control (100%), read-out: TRP MAX RESP (percent maximum fold activation)
Outline: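 N-terminal His-tagged human SIRT1 (10 nM, E. coli BL21(DE3)) with 0.5 μM Ac-RHKK(Ac)W-NH2 peptide and 120 μM βNAD+, 25 min at 25 °C in HEPES pH 7.5, formic acid stop. OAADPR or deacetylated peptide quantified by mass spectrometry; EC1.5 (50% activity increase over control) and Percent Maximum Activation reported.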

[1] = Trp mass spectrometry assay, concentration of test compound giving 150% activation of SIRT1
[2] = Trp mass spectrometry assay, EC1.5 = concentration of test compound that results in 150% activation of SIRT1
[3] = concentration giving 150% activation of SIRT1, Trp peptide substrate
[4] = Trp peptide substrate, concentration giving 150% activation of SIRT1

| Structure (SMILES) | TRP Activity (EC1.5) | Emax [%] | further results |
| --- | --- | --- | --- |
| N#Cc1cc(-c2ccc3c(n2)N(C(=O)Nc2ccccn2)[C@H]2CCN3C2)ccc1F [Example 341] |  |  | Tryp AVG EC1.5 (μM) [1]: A (A (EC1.5<1 μM)) |
| N#Cc1ccccc1-c1ccc2c(n1)N(C(=O)Nc1ccccn1)[C@H]1CCCN2C1 [Example 449] |  |  | Tryp AVG EC1.5 (μM) [2]: B (B (EC1.5 1-25 μM)) |
| O=C(Nc1cncc(F)c1)N1c2nc(-c3cncc(C(F)(F)F)c3)ccc2N2CCC[C@H]1C2 [Example 411] |  |  | Tryp AVG EC1.5 (μM) [1]: A (A (EC1.5<1 μM)) |
| CCOc1cc(-c2ccc3c(n2)N(C(=O)Nc2cnccn2)[C@H]2CCN3C2)ccn1 [(9S)-5-(2-ethoxypyridin-4-yl)-N-(pyrazin-2-yl)-1,6,8-triazatricyclo[7.2.1.0 {2,7}]dodeca-2(7),3,5-triene-8-carboxamide] | B (B (EC1.5 1-25 μM)) | > 150 |  |
| O=C(Nc1ccccn1)N1c2nc(-c3ccc(-c4nnn[nH]4)cc3)ccc2N2CC[C@H]1C2 [Example 347] |  |  | Tryp AVG EC1.5 (μM) [1]: A (A (EC1.5<1 μM)) |
| O=C(NCCCc1ccccc1)N1c2nc(-c3cccc(C(F)(F)F)c3)ccc2N2CC[C@H]1C2 [Example 599] |  |  | Tryp AVG EC1.5 (μM) [2]: B (B (EC1.5 1-25 μM)) |
| Cc1cc(-c2ccc3c(n2)N(C(=O)N2CC[C@@H](C)C2)[C@H]2CCN3C2)ccn1 [(9S)-5-(2-methylpyridin-4-yl)-8-{[(3R)-3-methylpyrrolidin-1-yl]carbonyl}-1,6,8-triazatricyclo[7.2.1.0 {2,7}]dodeca-2,4,6-triene] | C (C (EC1.5>25 μM)) | < 150 |  |
| NCc1cnnn1-c1cccc(NC(=O)N2c3nc(-c4cccc(C(F)(F)F)c4)ccc3N3CC[C@H]2C3)c1 [Example 640] |  |  | Tryp AVG EC1.5 (μM) [3]: A (A (EC1.5<1 μM)) |
| O=C(NCCO)c1ccc2c(n1)N(C(=O)Nc1ccccn1)[C@H]1CCN2C1 [(9S)-5-N-(2-hydroxyethyl)-8-N-(pyridin-2-yl)-1,6,8-triazatricyclo[7.2.1.0^{2,7}]dodeca-2(7),3,5-triene-5,8-dicarboxamide] | B (B (EC1.5 1-25 μM)) | > 150 |  |
| Cc1ccc(-c2ccc3c(n2)N(C(=O)Nc2ccncn2)[C@H]2CCCN3C2)cn1 [Example 479] |  |  | Tryp AVG EC1.5 (μM) [2]: B (B (EC1.5 1-25 μM)) |
| COc1cc(NC(=O)N2c3nc(-c4cccc(C(F)(F)F)c4)ccc3N3C[C@@H](O)[C@H]2C3)ncn1 [Example 644] |  |  | Tryp AVG EC1.5 (μM) [3]: B (B (EC1.5 1-25 μM)) |
| Cc1nn(C)c(C)c1-c1ccc2c(n1)N(C(=O)Nc1cccnc1)[C@H]1CCN2C1 [Example 486] |  |  | Tryp AVG EC1.5 (μM) [2]: C (C (EC1.5>25 μM)) |
| Cc1ccc(-c2ccc3c(n2)N(C(=O)Nc2ccccn2)[C@H]2CCCN3C2)cn1 [Example 465] |  |  | Tryp AVG EC1.5 (μM) [2]: B (B (EC1.5 1-25 μM)) |
| Cc1cc(-c2ccc3c(n2)N(C(=O)Nc2nc(C)c(C)s2)[C@H]2CCN3C2)ccn1 [Example 481] |  |  | Tryp AVG EC1.5 (μM) [2]: A (A (EC1.5<1 μM)) |
| O=C(Nc1cccc(-c2cnco2)n1)N1c2nc(-c3cncc(C(F)(F)F)c3)ccc2N2C[C@@H](O)[C@H]1C2 [Example 703] |  |  | Tryp AVG EC1.5 (μM) [3]: A (A (EC1.5<1 μM)) |
| CN(C)c1ccc(-c2ccc3c(n2)N(C(=O)Nc2ccccn2)[C@H]2CCN3C2)cn1 [Example 345] |  |  | Tryp AVG EC1.5 (μM) [1]: B (B (EC1.5 1-25 μM)) |
| N=C(N)NCc1ncc(-c2cccc(NC(=O)N3c4nc(-c5cccc(C(F)(F)F)c5)ccc4N4CC[C@H]3C4)c2)o1 [Example 776] |  |  | Tryp AVG EC1.5 (μM) [3]: A (A (EC1.5<1 μM)) |
| Cc1nc(NC(=O)N2c3nc(-c4cccc(C(F)(F)F)c4)ccc3N3C[C@@H](O)[C@H]2C3)sc1C [Example 699] |  |  | Tryp AVG EC1.5 (μM) [3]: B (B (EC1.5 1-25 μM)) |
| CC(=O)c1sc(NC(=O)N2c3nc(-c4cccc(C(F)(F)F)c4)ccc3N3CC[C@H]2C3)nc1C [Example 75] |  |  | Tryp AVG EC1.5 (μM) [4]: A (A (EC1.5<1 μM)) |
| COc1cc(NC(=O)N2c3nc(-c4cccnc4)ccc3N3CCC[C@H]2C3)ncn1 [Example 442] |  |  | Tryp AVG EC1.5 (μM) [2]: B (B (EC1.5 1-25 μM)) |
| O=C(Nc1ccccn1)N1c2nc(-c3cc(F)cc(C(F)(F)F)c3)ccc2N2CC[C@H]1C2 [Example 333] |  |  | Tryp AVG EC1.5 (μM) [1]: A (A (EC1.5<1 μM)) |
| O=C(Nc1cc(O)ncn1)N1c2nc(N3CCCC(C(F)(F)F)C3)ccc2N2CCC[C@H]1C2 (some centres unmarked) [Example 361] |  |  | Tryp AVG EC1.5 (μM) [1]: A (A (EC1.5<1 μM)) |
| O=C(Nc1ccncc1Cl)N1c2nc(-c3cccc(C(F)(F)F)c3)ccc2N2CC[C@H]1C2 [Example 96] |  |  | Tryp AVG EC1.5 (μM) [4]: B (B (EC1.5 1-25 μM)) |
| Cc1cc(-c2ccc3c(n2)N(C(=O)NCCc2cccnc2)[C@H]2CCN3C2)ccn1 [(9S)-5-(2-methylpyridin-4-yl)-N-[2-(pyridin-3-yl)ethyl]-1,6,8-triazatricyclo[7.2.1.0 {2,7}]dodeca-2(7),3,5-triene-8-carboxamide hydrochloride] | C (C (EC1.5>25 μM)) | < 150 |  |
| O=C(Nc1ccc(F)cn1)N1c2nc(-c3cccc(C(F)(F)F)n3)ccc2N2CC[C@H]1C2 [Example 340] |  |  | Tryp AVG EC1.5 (μM) [1]: B (B (EC1.5 1-25 μM)) |
| Cc1cc(OCC(O)CO)nc(NC(=O)N2c3nc(-c4cccc(C(F)(F)F)c4)ccc3N3CC[C@H]2C3)n1 (some centres unmarked) [Example 26] |  |  | Tryp AVG EC1.5 (μM) [4]: B (B (EC1.5 1-25 μM)) |
| Cn1cc(-c2ccc3c(n2)N(C(=O)Nc2ccccn2)[C@H]2CCN3C2)cn1 [Example 349] |  |  | Tryp AVG EC1.5 (μM) [1]: B (B (EC1.5 1-25 μM)) |
| Cc1ccc(-c2ccc3c(n2)N(C(=O)Nc2nc(C)c(C)s2)[C@H]2CCCN3C2)cn1 [Example 506] |  |  | Tryp AVG EC1.5 (μM) [2]: A (A (EC1.5<1 μM)) |

Continued, in another order:

| TRP Activity (EC1.5) | Emax [%] | Structure (SMILES) | further results |
| --- | --- | --- | --- |
| A (A (EC1.5<1 μM)) | > 150 | O=C(Nc1ccnc(OC[C@H](O)CO)c1)N1c2nc(-c3cccc(C(F)(F)F)c3)ccc2N2CC[C@H]1C2 [(9S)-N-{2-[(2R)-2,3-dihydroxypropoxy]pyridin-4-yl}-5-[3-(trifluoromethyl)phenyl]-1,6,8-triazatricyclo[7.2.1.0 {2,7}]dodeca-2(7),3,5-triene-8-carboxamide] |  |
| B (B (EC1.5 1-25 μM)) | > 150 | Cc1cc(-c2ccc3c(n2)N(C(=O)Nc2cnccn2)[C@H]2CCN3C2)cnc1C#N [(9S)-5-(6-cyano-5-methylpyridin-3-yl)-N-(pyrazin-2-yl)-1,6,8-triazatricyclo[7.2.1.0 {2,7}]dodeca-2(7),3,5-triene-8-carboxamide] |  |
| A (A (EC1.5<1 μM)) | > 150 | O=C(Nc1ccnc(OC[C@@H](O)CO)n1)N1c2nc(-c3cccc(C(F)(F)F)c3)ccc2N2CC[C@H]1C2 [(9S)-N-{2-[(2S)-2,3-dihydroxypropoxy]pyrimidin-4-yl}-5-[3-(trifluoromethyl)phenyl]-1,6,8-triazatricyclo[7.2.1.0 {2,7}]dodeca-2(7),3,5-triene-8-carboxamide] |  |
| A (A (EC1.5<1 μM)) | > 150 | O=C(NC1CCC1)c1ccc2c(n1)N(C(=O)Nc1ccccn1)[C@H]1CCN2C1 [(9S)-5-N-cyclobutyl-8-N-(pyridin-2-yl)-1,6,8-triazatricyclo[7.2.1.0^{2,7}]dodeca-2(7),3,5-triene-5,8-dicarboxamide] |  |
| B (B (EC1.5 1-25 μM)) | > 150 | Cc1ccc(NC(=O)N2c3nc(-c4ccnc(C)c4)ccc3N3CC[C@H]2C3)cn1 [(9S)-N-(6-methylpyridin-3-yl)-5-(2-methylpyridin-4-yl)-1,6,8-triazatricyclo[7.2.1.0 {2,7}]dodeca-2(7),3,5-triene-8-carboxamide] |  |
| A (A (EC1.5<1 μM)) | > 150 | O=C(Nc1cncnc1)N1c2nc(-c3cncc(C(F)(F)F)c3)ccc2N2CCC[C@H]1C2 [(9S)-N-(pyrimidin-5-yl)-5-[5-(trifluoromethyl)pyridin-3-yl]-1,6,8-triazatricyclo[7.3.1.0 {2,7}]trideca-2(7),3,5-triene-8-carboxamide] |  |
| A (A (EC1.5<1 μM)) | > 150 | Cc1cc(-c2ccc3c(n2)N(C(=O)Nc2nc(C)c(C)s2)[C@H]2CCCN3C2)ccn1 [(9S)-N-(dimethyl-1,3-thiazol-2-yl)-5-(2-methylpyridin-4-yl)-1,6,8-triazatricyclo[7.3.1.0 {2,7}]trideca-2(7),3,5-triene-8-carboxamide] |  |
| C (C (EC1.5>25 μM)) | < 150 | N#Cc1ncc(-c2ccc3c(n2)N(C(=O)Nc2cnccn2)[C@H]2CCN3C2)cc1F [(9S)-5-(6-cyano-5-fluoropyridin-3-yl)-N-(pyrazin-2-yl)-1,6,8-triazatricyclo[7.2.1.0^2,7]dodeca-2(7),3,5-triene-8-carboxamide] |  |
| C (C (EC1.5>25 μM)) | < 150 | Cc1cc(-c2ccc3c(n2)N(C(=O)N[C@H](C)c2ccccn2)[C@H]2CCN3C2)ccn1 [(9S)-5-(2-methylpyridin-4-yl)-N-[(1R)-1-(pyridin-2-yl)ethyl]-1,6,8-triazatricyclo[7.2.1.0 {2,7}]dodeca-2,4,6-triene-8-carboxamide] |  |
